Laboratory results: patent publication US10377753B2, “Substituted 4-azaindoles and their use as GluN2B receptor modulators” (Janssen Pharmaceutica NV, priority 2015, dated 2019)
Where a name gives a salt, the structure may show the parent alone.

Biological target: cloned human NR1/NR2B ion channels (Homo sapiens (Human), UniProt Q05586+Q13224)
Assay: HNR2BC: effects of test articles on cloned human NR1/NR2B ion channels expressed in mammalian cells (FLIPR calcium flux)
Assay type: cell-based
Conditions: cloned human NR1/NR2B, Table 5
Procedure: HNR2BC: Effects of Test Articles on Cloned Human NR1/NR2B Ion Channels Expressed in Mammalian Cells
NMDA receptors are ion channels that are highly permeable to Ca^2+ ions, rendering it possible to monitor NMDA receptor function using cell-based calcium flux assay. In this assay, co-agonists glutamate and glycine are added to cells heterologously expressing human GluN1/GluN2B NMDA receptors to initiate cellular Ca^2+ influx. The time course of the changes in intracellular calcium is measured using a fluorescent dye and a FLIPR (Fluorometric Imaging Plate Reader) device.
Twenty four hours before measurements, the expression of the NMDA receptors in the stable cell line is induced with Tet-On inducible system in the presence of a non-selective NMDA receptor blocker. On the day of the experiment, cell culture media is carefully washed and the cells are loaded with Calcium 5 Dye Kit (Molecular Devices) in dye loading buffer containing 137 mM NaCl, 4 mM KCl, 2 mM CaCl2, 0.5 mM MgCl2, 10 mM HEPES and 5 mM D-glucose; pH 7.4. After 1 h incubation at the room temperature, the dye is washed away with the assay buffer (137 mM NaCl, 4 mM KCl, 2 mM CaCl2, 0.01 mM EDTA, 10 mM HEPES and 5 mM D-glucose; pH 7.4) In the FLIPR TETRA reader, various concentrations of the test compounds are added to the cells for 5 min while fluorescence is monitored to detect potential agonist activity. Next, co-agonists, glutamate and glycine are added for another 5 minutes. The concentration of glutamate corresponding to ˜EC80 is used to maximize the assay's signal window and ability to detect NMDA receptor antagonists and negative allosteric modulators. A saturating concentration (10 μM) of glycine is also present in the assay. […] The fluorescent signal in the presence of test compounds is quantified and normalized to the signal defined by the appropriate control wells.

cloned human NR1/NR2B ion channels, sequence (Q13224 27-1484, other chains not shown): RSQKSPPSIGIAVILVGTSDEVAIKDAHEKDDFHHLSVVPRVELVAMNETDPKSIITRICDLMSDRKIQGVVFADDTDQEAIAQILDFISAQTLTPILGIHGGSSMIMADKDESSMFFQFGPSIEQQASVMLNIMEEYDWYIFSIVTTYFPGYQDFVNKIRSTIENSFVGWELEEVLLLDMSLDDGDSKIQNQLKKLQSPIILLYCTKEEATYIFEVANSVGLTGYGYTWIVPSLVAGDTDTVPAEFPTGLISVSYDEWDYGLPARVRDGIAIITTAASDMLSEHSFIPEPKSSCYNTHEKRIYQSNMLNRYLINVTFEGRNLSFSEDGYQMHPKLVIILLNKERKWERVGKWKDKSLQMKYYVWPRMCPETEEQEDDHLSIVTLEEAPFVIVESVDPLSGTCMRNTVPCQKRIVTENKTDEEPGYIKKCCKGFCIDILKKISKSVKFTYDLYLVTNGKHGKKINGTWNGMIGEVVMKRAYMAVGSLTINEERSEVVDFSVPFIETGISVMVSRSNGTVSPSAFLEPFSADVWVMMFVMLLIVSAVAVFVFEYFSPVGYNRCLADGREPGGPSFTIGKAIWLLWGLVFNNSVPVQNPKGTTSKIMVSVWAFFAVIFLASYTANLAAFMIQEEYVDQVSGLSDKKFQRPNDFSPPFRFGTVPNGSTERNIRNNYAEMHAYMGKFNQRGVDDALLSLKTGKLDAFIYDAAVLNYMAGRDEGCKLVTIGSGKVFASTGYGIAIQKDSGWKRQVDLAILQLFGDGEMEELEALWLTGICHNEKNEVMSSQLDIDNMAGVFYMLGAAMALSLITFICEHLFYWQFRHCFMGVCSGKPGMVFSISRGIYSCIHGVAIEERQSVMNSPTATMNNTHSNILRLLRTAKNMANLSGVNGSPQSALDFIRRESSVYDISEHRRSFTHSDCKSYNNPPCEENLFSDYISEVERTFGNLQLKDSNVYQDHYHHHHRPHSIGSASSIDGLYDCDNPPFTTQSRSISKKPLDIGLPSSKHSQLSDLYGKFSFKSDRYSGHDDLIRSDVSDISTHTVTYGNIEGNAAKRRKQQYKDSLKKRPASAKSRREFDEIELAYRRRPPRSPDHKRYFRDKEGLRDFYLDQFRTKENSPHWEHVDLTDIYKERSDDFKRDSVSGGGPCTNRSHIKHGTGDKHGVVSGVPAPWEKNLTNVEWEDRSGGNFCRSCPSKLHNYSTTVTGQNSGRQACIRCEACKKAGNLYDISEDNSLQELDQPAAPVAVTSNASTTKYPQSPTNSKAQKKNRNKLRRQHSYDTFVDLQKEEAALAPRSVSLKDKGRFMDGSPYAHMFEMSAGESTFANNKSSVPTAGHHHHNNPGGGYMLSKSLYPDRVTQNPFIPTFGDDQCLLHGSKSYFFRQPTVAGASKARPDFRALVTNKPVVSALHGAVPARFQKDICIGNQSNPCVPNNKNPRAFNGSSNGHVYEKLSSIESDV

Compound | IC50 [nM]
O=C(Cn1cc(Cl)c2ncc(-c3ccc(F)c(F)c3F)cc21)N1CC(F)(F)C1 [Example 50, 2-[3-Chloro-6-(2,3,4-trifluorophenyl)pyrrolo[3,2-b]pyridin-1-yl]-1-(3,3-difluoroazetidin-1-yl)ethanone] | 39.8
Cc1cccc(-c2cnc3cc(C)n(CC(=O)NC4CC4)c3c2)c1 [Example 51, N-Cyclopropyl-2-[2-methyl-6-(m-tolyl)pyrrolo[3,2-b]pyridin-1-yl]acetamide] | 63.1
Cc1cccc(-c2cnc3c(Cl)cn(CC(=O)N4CC(F)(F)C4)c3c2)c1 [Example 53, 2-[3-Chloro-6-(m-tolyl)pyrrolo[3,2-b]pyridin-1-yl]-1-(3,3-difluoroazetidin-1-yl)ethanone] | 5010
Cc1cccc(-c2cnc3c(Cl)cn(CC(=O)N4CC(F)C4)c3c2)c1 [Example 54, 2-[3-Chloro-6-(m-tolyl)pyrrolo[3,2-b]pyridin-1-yl]-1-(3-fluoroazetidin-1-yl)ethanone] | 63.1
O=C(Cn1cc(Cl)c2ncc(-c3ccccc3)cc21)N1CC(F)C1 [Example 56, 2-(3-Chloro-6-phenyl-pyrrolo[3,2-b]pyridin-1-yl)-1-(3-fluoroazetidin-1-yl)ethanone] | 50.1
O=C(Cn1cc(Cl)c2ncc(-c3ccc(F)cc3)cc21)N1CC(F)C1 [Example 58, 2-[3-Chloro-6-(4-fluorophenyl)pyrrolo[3,2-b]pyridin-1-yl]-1-(3-fluoroazetidin-1-yl)ethanone] | 25.1
Cc1cc(Cn2ccc3ncc(-c4ccc(F)cc4C)cc32)no1 [Example 59, 3-[[6-(4-Fluoro-2-methyl-phenyl)pyrrolo[3,2-b]pyridin-1-yl]methyl]-5-methyl-isoxazole] | 39.8
Cc1cc(Cn2ccc3ncc(-c4cccc(C(F)(F)F)c4)cc32)no1 [Example 60, 5-Methyl-3-[[6-[3-(trifluoromethyl)phenyl]pyrrolo[3,2-b]pyridin-1-yl]methyl]isoxazole] | 100
Cc1cccc(-c2cnc3ccn(Cc4cc(C)on4)c3c2)c1 [Example 61, 5-Methyl-3-[[6-(m-tolyl)pyrrolo[3,2-b]pyridin-1-yl]methyl]isoxazole trifluoroacetate salt] | 398
Cc1cc(Cn2ccc3ncc(-c4ccccc4C)cc32)no1 [Example 62, 5-Methyl-3-[[6-(o-tolyl)pyrrolo[3,2-b]pyridin-1-yl]methyl]isoxazole trifluoroacetate salt] | 126
Cc1cc(Cn2ccc3ncc(-c4cc(F)cc(F)c4)cc32)no1 [Example 64, 3-[[6-(3,5-Difluorophenyl)pyrrolo[3,2-b]pyridin-1-yl]methyl]-5-methyl-isoxazole trifluoroacetate salt] | 63.1
Cc1cc(-c2cnc3c(F)cn(CC(=O)N4CCC4)c3c2)ccc1F [Example 69, 1-(Azetidin-1-yl)-2-[3-fluoro-6-(4-fluoro-3-methyl-phenyl)pyrrolo[3,2-b]pyridin-1-yl]ethanone] | 25.1
O=C(Cn1ccc2ncc(-c3ccccc3F)cc21)N1CCC1 [Example 71, 1-(azetidin-1-yl)-2-[6-(2-fluorophenyl)pyrrolo[3,2-b]pyridin-1-yl]ethanone] | 7940
O=C(Cn1ccc2ncc(-c3cccc(F)c3)cc21)N1CCC1 [Example 72, 1-(Azetidin-1-yl)-2-[6-(3-fluorophenyl)pyrrolo[3,2-b]pyridin-1-yl]ethanone] | 251
CCc1cccc(-c2cnc3ccn(CC(=O)N4CCC4)c3c2)c1 [Example 74, 1-(Azetidin-1-yl)-2-[6-(3-ethylphenyl)pyrrolo[3,2-b]pyridin-1-yl]ethanone] | 200
Cc1ccc(-c2cnc3ccn(CC(=O)NC4CC4)c3c2)cc1 [Example 77, N-Cyclopropyl-2-[6-(p-tolyl)pyrrolo[3,2-b]pyridin-1-yl]acetamide] | 251
Cc1ccc(-c2cnc3ccn(CC(=O)N4CCCC4)c3c2)cc1 [Example 82, 2-[6-(p-Tolyl)pyrrolo[3,2-b]pyridin-1-yl]-1-pyrrolidin-1-yl-ethanone] | 63.1
O=C(Cn1ccc2ncc(-c3cccc(F)c3)cc21)N1CCOCC1 [Example 87, 2-[6-(3-Fluorophenyl)pyrrolo[3,2-b]pyridin-1-yl]-1-morpholino-ethanone] | 1000

Further lines, results first:

IC50 [nM] | Compound
1260 | Cc1cc2ncc(-c3ccccc3)cc2n1CC(=O)N1CCOCC1 [Example 52, 2-(2-Methyl-6-phenyl-pyrrolo[3,2-b]pyridin-1-yl)-1-morpholino-ethanone]
31.6 | O=C(Cn1cc(Cl)c2ncc(-c3ccccc3)cc21)N1CC(F)(F)C1 [Example 55, 2-(3-Chloro-6-phenyl-pyrrolo[3,2-b]pyridin-1-yl)-1-(3,3-difluoroazetidin-1-yl)ethanone]
31.6 | O=C(Cn1cc(Cl)c2ncc(-c3ccc(F)cc3)cc21)N1CC(F)(F)C1 [Example 57, 2-[3-Chloro-6-(4-fluorophenyl)pyrrolo[3,2-b]pyridin-1-yl]-1-(3,3-difluoroazetidin-1-yl)ethanone]
200 | Cc1cc(Cn2ccc3ncc(-c4ccc(F)c(C)c4)cc32)no1 [Example 63, 3-[[6-(4-Fluoro-3-methyl-phenyl)pyrrolo[3,2-b]pyridin-1-yl]methyl]-5-methyl-isoxazole trifluoroacetate salt]
79.4 | Cc1cc(Cn2ccc3ncc(-c4ccc(F)cc4)cc32)no1 [Example 65, 3-[[6-(4-Fluorophenyl)pyrrolo[3,2-b]pyridin-1-yl]methyl]-5-methyl-isoxazole trifluoroacetate salt]
200 | Cc1cc(-c2cnc3ccn(CC(=O)NC4CCC4)c3c2)ccc1F [Example 66, N-Cyclobutyl-2-[6-(4-fluoro-3-methyl-phenyl)pyrrolo[3,2-b]pyridin-1-yl]acetamide trifluoroacetate salt]
39.8 | Cc1cc(-c2cnc3c(Br)cn(CC(=O)N4CCC4)c3c2)ccc1F [Example 68, 1-(Azetidin-1-yl)-2-[3-bromo-6-(4-fluoro-3-methyl-phenyl)pyrrolo[3,2-b]pyridin-1-yl]ethanone]
50.1 | Cc1cc(-c2cnc3ccn(CC(=O)O)c3c2)ccc1F [Example 70, 2-[6-(4-Fluoro-3-methyl-phenyl)pyrrolo[3,2-b]pyridin-1-yl]acetic acid]
39.8 | Cc1ccc(-c2cnc3ccn(CC(=O)N4CCC4)c3c2)cc1 [Example 73, 1-(Azetidin-1-yl)-2-[6-(p-tolyl)pyrrolo[3,2-b]pyridin-1-yl]ethanone]
50.1 | O=C(Cn1ccc2ncc(-c3ccccc3F)cc21)NC1CC1 [Example 75, N-Cyclopropyl-2-[6-(2-fluorophenyl)pyrrolo[3,2-b]pyridin-1-yl]acetamide]
1000 | O=C(Cn1ccc2ncc(-c3cccc(F)c3)cc21)NC1CC1 [Example 76, N-Cyclopropyl-2-[6-(3-fluorophenyl)pyrrolo[3,2-b]pyridin-1-yl]acetamide]
1580 | O=C(Cn1ccc2ncc(-c3ccccc3)cc21)N1CCCC1 [Example 78, 2-(6-Phenylpyrrolo[3,2-b]pyridin-1-yl)-1-pyrrolidin-1-yl-ethanone]
79.4 | O=C(Cn1ccc2ncc(-c3ccccc3F)cc21)N1CCCC1 [Example 79, 2-[6-(2-Fluorophenyl)pyrrolo[3,2-b]pyridin-1-yl]-1-pyrrolidin-1-yl-ethanone]
316 | O=C(Cn1ccc2ncc(-c3ccc(F)cc3)cc21)N1CCCC1 [Example 80, 2-[6-(4-Fluorophenyl)pyrrolo[3,2-b]pyridin-1-yl]-1-pyrrolidin-1-yl-ethanone]
316 | Cc1cccc(-c2cnc3ccn(CC(=O)N4CCCC4)c3c2)c1 [Example 81, 2-[6-(m-Tolyl)pyrrolo[3,2-b]pyridin-1-yl]-1-pyrrolidin-1-yl-ethanone]
251 | CCc1cccc(-c2cnc3ccn(CC(=O)N4CCCC4)c3c2)c1 [Example 83, 2-[6-(3-Ethylphenyl)pyrrolo[3,2-b]pyridin-1-yl]-1-pyrrolidin-1-yl-ethanone]
79.4 | O=C(Cn1ccc2ncc(-c3cccc(F)c3)cc21)N1CCCC1 [Example 84, 2-[6-(3-Fluorophenyl)pyrrolo[3,2-b]pyridin-1-yl]-1-pyrrolidin-1-yl-ethanone]
63.1 | O=C(Cn1ccc2ncc(-c3ccccc3)cc21)N1CCOCC1 [Example 85, 1-Morpholino-2-(6-phenylpyrrolo[3,2-b]pyridin-1-yl)ethanone]
501 | O=C(Cn1ccc2ncc(-c3ccccc3F)cc21)N1CCOCC1 [Example 86, 2-[6-(2-Fluorophenyl)pyrrolo[3,2-b]pyridin-1-yl]-1-morpholino-ethanone]
251 | O=C(Cn1ccc2ncc(-c3ccc(F)cc3)cc21)N1CCOCC1 [Example 88, 2-[6-(4-Fluorophenyl)pyrrolo[3,2-b]pyridin-1-yl]-1-morpholino-ethanone]
200 | Cc1cccc(-c2cnc3ccn(CC(=O)N4CCOCC4)c3c2)c1 [Example 89, 1-Morpholino-2-[6-(m-tolyl)pyrrolo[3,2-b]pyridin-1-yl]ethanone]
